US7276371B2, “Stimulation of hematopoietic cells in vitro” (Point Therapeutics, Inc., priority 1997, dated 2007)

How the values were obtained:
bone marrow cells = experiment: Bone marrow cell growth stimulation, 4 day culture without added cytokines, cell count; assay type: cell-based; details: 10,000 bone marrow cells per well at start, IMDM, no growth factors, control 10,000 cells
Method: Freshly isolated bone marrow cells were isolated and 10,000 cells per well were incubated in 96 microtiter plates in CellGro Iscove's Modified Dulbecco's Medium (IMDM) and with or without (control) the indicated concentrations of Pro-boroPro for 4 days. At the end of this incubation period, the cells were counted under the microscope. The cultures without Pro-boroPro contained 10,000 cells at the end of 4 days. The cultures containing Pro-boroPro had 53,000 cells at 10^−6M, 38,000 cells at 10^−8M and 42,000 cells at 10^−10 M. The cultures containing a growth factor mix (GF) contained 82,000 cells. Growth factors were supplied in OPITEN® Giant Cell Tumor-conditioned medium (IGEN)
Cultures were set up as described in the legend to FIG. 1 except that Lys-boroPro and the homoconjugate were used, and incubated for 4 days.
• 1. Obtain bone marrow or umbilical cord blood in heparinized (green top) tube. Can be stored at room temperature until use within 48 hours. • 2. Mix marrow/blood 1:1 with phosphate-buffered saline, pH 7.4(PBS) that has been stored at 4° C. • 3. Carefully layer blood-PBS mixture on a 2× volume quantity of Histopaque (Sigma) that has been stored at 4° C. • 4. Centrifuge at 400 g×20 minutes at 37° C. • 5. Carefully collect cells at interface and wash ×2 in cold PBS. • 6. Count viable cells using trypan blue. • 7. Set up cells as 1 ml cultures in plastic culture tubes (or 96 well or 24 well microtiter plates) at 10^4 cells/ml in CellGro Iscove's Modified Dulbecco's medium (Meditech) containing kanamycin (5 ug/ml), desired concentration of Xaa-boroPro or other compound of the invention, and the absence or presence of Giant Cell Tumor-Conditioned Medium (GCT-CM, Origen) as source of growth factors. Xaa-boroPro or other compounds of the invention should be diluted to medium and added to culture only after cells are in culture tube. • 8. Cells are cultured at 37° C. in a moist air incubator containing 5% CO2. • 9. At desired time, an aliquot of cells are removed and counted. • 10. […]

[1] = system: Umbilical cord blood cells; experiment: Bulk umbilical cord blood, total cell counts after 4 day incubation; assay type: cell-based; details: control culture 0.2×10^6 cells
Method: (§1) Umbilical cord blood cells were incubated under essentially the same conditions as described in the legend to FIG. 1, except that Val-boroPro was used as stimulant at the indicated concentrations. After 4 day incubation: • A: Bulk Umbilical Cord Blood; Total Cell Counts. Control culture: 0.2×10^6 cells; Growth factors 5×10^6 cells; Val-boroPro: 3×10^6 (10^−6M); 3×10^6 (10^−8M); 4×10^6 ([…]). • B: CD34+ isolated cells: CD34+ cells were isolated using CD34 mAb coupled beads for positive selection. Cell preparation contained 98% CD34+ cells. After 4 days of incubation the culture containing 10^−10M Val-boroPro contained 8.5×10^6 cells, compared to 0.6×10^6 cells in the control and 4×10^6 cells in the incubation with growth factors.
(§2) • 1. Obtain bone marrow or umbilical cord blood in heparinized (green top) tube. Can be stored at room temperature until use within 48 hours. • 2. Mix marrow/blood 1:1 with phosphate-buffered saline, pH 7.4(PBS) that has been stored at 4° C. • 3. Carefully layer blood-PBS mixture on a 2× volume quantity of Histopaque (Sigma) that has been stored at 4° C. • 4. Centrifuge at 400 g×20 minutes at 37° C. • 5. Carefully collect cells at interface and wash ×2 in cold PBS. • 6. Count viable cells using trypan blue. • 7. Set up cells as 1 ml cultures in plastic culture tubes (or 96 well or 24 well microtiter plates) at 10^4 cells/ml in CellGro Iscove's Modified Dulbecco's medium (Meditech) containing kanamycin (5 ug/ml), desired concentration of Xaa-boroPro or other compound of the invention, and the absence or presence of Giant Cell Tumor-Conditioned Medium (GCT-CM, Origen) as source of growth factors. Xaa-boroPro or other compounds of the invention should be diluted to medium and added to culture only after cells are in culture tube. • 8. Cells are cultured at 37° C. in a moist air incubator containing 5% CO2. • 9. At desired time, an aliquot of cells are removed and counted. • 10. Counting can be performed under the microscope (direct) or by using the MTT assay (colorimetric assay).

Isolated CD34+ cells = Isolated CD34+ cells (98% purity) of bone marrow, 4 day culture: growth stimulation and percent CD34+ remaining; assay type: cell-based, human
Method: as §2

CD34+ isolated cells = experiment: CD34+ cells isolated from umbilical cord blood, 4 day culture: cell number and percent CD34+ remaining; assay type: cell-based, human; details: 10^−10M; isolated CD34+ cells (98% CD34+); control 0.6×10^6 cells
Method: as §1
C: Percent of CD34+ cells remaining after 4 day culture: Cultures incubated with Val-boroPro contained between 10 and 15% of CD34+ cells after 4 day culture. Cultures incubated with Growth Factors had only 4% of CD34+ cells remaining (panel b).
• 1. Obtain bone marrow or umbilical cord blood in heparinized (green top) tube. Can be stored at room temperature until use within 48 hours. • 2. […] Carefully layer blood-PBS mixture on a 2× volume quantity of Histopaque (Sigma) that has been stored at 4° C. • 4. […] At desired time, an aliquot of cells are removed and counted. • 10. […]

Row | Compound | number of cells at the end of 4 days (bone marrow cells; 10^−6M) | number of cells at the end of 4 days (bone marrow cells; 10^−8M) | number of cells at the end of 4 days (bone marrow cells; 10^−10 M) | Total Cell Counts after 4 day incubation ([1]; 10^−6M) | Total Cell Counts after 4 day incubation ([1]; 10^−8M) | Total Cell Counts after 4 day incubation ([1]; 10^−M (so in the source)) | increase in stimulation of cellular growth over that in control cultures (Isolated CD34+ cells; 4 day culture, concentration not given) | Percent of CD34+ cells remaining in culture after a 4 day incubation period (Isolated CD34+ cells; isolated bone marrow CD34+ cells, control 63%) | number of cells after 4 days of incubation (CD34+ isolated cells)
1 | O=C(C1CCCN1)N1CCCC1B(O)O (stereo not drawn) [Pro-boroPro] | 53,000 cells | 38,000 cells | 42,000 cells | – | – | – | – | – | –
2 | CC(C)[C@H](N)C(=O)N1CCC[C@H]1B(O)O [Val-boroPro] | – | – | – | 3×10^6 | 3×10^6 | 4×10^6 | up to 20 fold | 43% | 8.5×10^6 cells
